The values that follow come from US20250282830A1, “ANTI-VIRAL PEPTIDE COMPOSITIONS AND METHODS TO IMPROVE BIOLOGICAL ACTIVITY THEREOF” (priority 2021, published 2025).

For one series, the system named is DENV-2. As to the kind of experiment: Plaque reduction neutralization assay, DENV-2. In kind it is cell-based, Dengue virus serotype 2. The note with it: Vero cells; virus pre-incubated with peptide 1 h at 37° C.; read-out: DENV-2 PRNT50. How it is done:
(§1) Vero cells were seeded at 1×10^5 cells per well and incubated overnight. Twofold serial dilutions of peptide were incubated with 200-300 p.f.u. of virus for 1 h at 37° C. Cells were infected with the virus-peptide mixture for 1 h at 37° C. The inoculum was removed and 0.8% (wt/vol) methylcellulose in medium supplemented with 1% FBS was added. After 3-5 days incubation, plates were fixed and analysed for plaques by immunostaining (DENV). For immunostaining, the cells were fixed, followed by incubation with 4G2, a mouse anti-DENV E protein monoclonal antibody (1:2,000 dilution), for 16-20 h. After addition of a secondary antibody, goat anti-mouse IgG (H+L)-HRP conjugate (1:2,000 dilution), the TrueBlue peroxidase substrate (KPL) was added and the optical density was measured at a wavelength of 450 nm. For crystal violet staining, cells were fixed with fixing solution (5% glutaric dialdehyde in Dulbecco's PBS) followed by staining with 0.1% crystal violet in fixing solution. The IC50 value was calculated by comparing the relative number of plaques in peptide-treated samples to virus-only samples using a four-parameter logistic curve fit.
Background: In a plaque reduction assay, fewer plaques than in the control indicate reduced infectivity or spread.

The test system of a further series is DENV-1. The series can be described thus: Plaque reduction neutralization assay, DENV-1. In kind it is cell-based, Dengue virus serotype 1. Conditions: Vero cells; virus pre-incubated with peptide 1 h at 37° C.; read-out: DENV-1 PRNT50. How it is done: as §1
The next series deals with DENV-4. The series can be described thus: Plaque reduction neutralization assay, DENV-4. Format: cell-based, Dengue virus serotype 4. Conditions: Vero cells; virus pre-incubated with peptide 1 h at 37° C.; read-out: DENV-4 PRNT50. How it is done: as §1
Series [1] can be described thus: Time-lapse fluorescence microscopy imaging of peptide-induced vesicle rupture. Conditions: small and large tethered vesicles. How it is done: Highly parallel measurements of peptide-induced liposome rupture were conducted by time-lapsed epifluorescence microscopy imaging. An Eclipse Ti-E inverted microscope (Nikon) with a high-pressure mercury lamp, a CFI Plan Apochromat TIRF×60 oil-immersion objective (NA 1.49; Nikon) and an Andor iXon3 897 EMCCD camera (Andor Technology), was utilized for measurements. The samples were illuminated with a mercury lamp (Intenslight C-HGFIE) using a TRITC filter set. Briefly, glass coverslips were assembled into a microfluidic flow cell, and coated with a thin layer of PLL-g-PEG(-biotin), followed by tethering of 0.025 μg ml^−1 liposomes via biotin-neutravidin coupling. Peptide was then added at a volumetric rate of 100 μl min^−1, and micrographs were recorded every 5-30 s depending on the particular experiment. The initial time was defined by when the peptide solution entered the channel inlet. Data processing and analysis were conducted using ImageJ (National Institutes of Health) and Python(x,y) software packages. The diameter of individual liposomes was estimated based on fluorescence intensity values. […]
Using time-lapse fluorescence microscopy imaging, we further investigated the interactions of different versions of Peptides 2 and 4 with tethered vesicles at the single-vesicle level and saw different degrees of vesicle rupture in terms of total extent and speed (FIG. 14).

In another series the test system is DENV-3. As to the kind of experiment: Plaque reduction neutralization assay, DENV-3. In kind it is cell-based, Dengue virus serotype 3. The note with it: Vero cells; virus pre-incubated with peptide 1 h at 37° C.; read-out: DENV-3 PRNT50. How it is done: as §1
Series [2] can be described thus: Blood-to-brain influx assessment (BBB transport). Format: in vivo, ICR-CD-1 mice. The note with it: mice. How it is done: Female, Institute for Cancer Research, Caesarean Derived-1 (ICR-CD-1) mice (7 to 10 weeks old; Envigo) were used to assess the in vivo blood-brain barrier (BBB) transport properties of AH-D peptide. The BBB permeability of AH-D was evaluated according to multiple time regression (MTR) analysis. In brief, mice were anesthetized by injecting 40% urethane intraperitoneally. Approximately 200 μl of AH-D peptide solution (10 mg kg^−1) was injected into the jugular internalis vein, then blood samples were collected from the carotid artery at selected time points after injection (minimum five time points per compound). Immediately after blood collection, the mice were euthanized by decapitation. The collected blood samples were centrifuged at 10,000 g for 15 min at 21° C. and the brains were isolated. The brain and the serum of each mouse were then analysed using a validated bio-analytical, ultrahigh-performance liquid chromatography tandem mass spectrometry method. Modelling of the data was performed according to the linear Gjedde-Patlak equation, giving the influx rate constant Kin (unidirectional clearance) of AH-D peptide. The molar concentration in the brain was also calculated by converting the mass of peptide per mass of brain tissue into the mass of peptide per volume of brain tissue by assuming the brain density to be 1.04 g ml^−1. […]

Series [3] in a line: Pharmacokinetic characterization. In kind it is in vivo, BALB/c mice. The note with it: mice. How it is done: Male BALB/c mice (InVivos) aged 8-9 weeks were used during the pharmacokinetic characterization experiments. In brief, mice were anaesthetized by isoflurane. AH-D peptide solution (25 mg kg^−1) was then administered by the intravenous (i.v.) route (tail vein). Blood samples were taken by cardiac puncture under isoflurane anaesthesia at regular time points after injection (eight time points per compound). The administered dose was maintained at 5 ml kg^−1. Selected organs were collected after euthanasia and were stored at −80° C. until bioanalysis. Blood samples were mixed with deionized water while tissue samples were homogenized in deionized water before extraction. The samples were then treated with phosphoric acid (5 μl), followed by acetonitrile (25 μl) that contained 15 ng ml^−1 imipramine internal standard, 5% ammonium hydroxide (25 μl), deionized water (100 μl) and 5% Tween-20 (20 μl), before vortexing. The processed samples were then added to pre-activated Strata-X Solid Phase Extraction cartridges (30 mg per 1 ml; Phenomenex), and washed with 500 μl of deionized water, followed by elution in 75/25 acetonitrile/methanol with 1% formic acid. […] The blood and tissue samples were then analysed using a validated bio-analytical, ultra-performance liquid chromatography tandem mass spectrometry method. […]

For the compound “SGSWLRDVWDWICTVLTDFKTWLQSKL [Peptide N2N]”, the IC50 in the series with DENV-2 turned out to be 290 nM; in the series on DENV-1, 115 nM; in the series with DENV-4 it was 171 nM; with DENV-3, 436 nM. Also, the “Dependence of vesicle rupture on vesicle size (membrane-curvature sensing), single-vesicle analysis” value in series [1] is reported as “have membrane-curvature sensing mechanisms”.
As for “DGNWLYDIWNWVCTVLADFKLWLGAKI [Peptide O9O]”, the IC50 came to 192 nM in the series with DENV-2, 50 nM in the series with DENV-1, 139 nM with DENV-4 and 119 nM in the series with DENV-3.
Taken in the same sequence, the figures for “SGSWLRDIWEWVCSILTDFKNWLSAKL [Peptide N4N]” were 1350 nM, 281 nM, 984 nM and 3880 nM.
In the same order, the values of “SGSWLRDVWDWVCTILTDFKNWLTSKL [Peptide N3O]” are 308 nM, 182 nM, 288 nM and 1020 nM.
Take “AESWLWEVWDWVLHVLSDFKTCLKAKF [Peptide N10N]”: the IC50 in the series on DENV-2 is 936 nM; with DENV-1 it was 201 nM; in the series with DENV-4, 720 nM; with DENV-3 it was 259 nM.
Turning to “SGSWLRDIWDWICEVLSDFKTWLKAKL [Peptide N1O]”, the IC50 amounted to 363 nM in the series on DENV-2, 219 nM with DENV-1, 294 nM in the series with DENV-4 and 974 nM in the series on DENV-3.
Taken in the same sequence, the figures for “GSTWLRDIWDWVCTVLSDFRVWLKSKL [Peptide O110]” were 1160 nM, 258 nM, 810 nM and 490 nM.
For “SGSWLRDVWDWVCTILTDFKNWLTSKL [Peptide N3N]”, the IC50 in the series with DENV-2 worked out at 389 nM; in the series with DENV-1, 121 nM; in the series with DENV-4 it was 139 nM; in the series with DENV-3 it was 936 nM.
For “GSTWLRDIWDWVCTVLSDFRVWLKSKL [Peptide N11O]”, the IC50 in the series with DENV-2 is 280 nM; with DENV-1 it was 131 nM; with DENV-4, 276 nM; with DENV-3 it was 947 nM.
In the same order, the values of “AESWLWEVWDWVLHVLSDFKTCLKAKF [Peptide N100]” are 362 nM, 194 nM, 1150 nM and 1110 nM.
In the same order, the values of “AESWLWEVWDWVLHVLSDFKTCLKAKF [Peptide O100]” are 396 nM, 60.3 nM, 567 nM and 316 nM.
As to “SGDWLRIIWDWVCSVVSDFKTWLSAKI [Peptide O6O]”, the IC50 with DENV-2 worked out at 412 nM; with DENV-1, 68 nM; with DENV-4, 273 nM; with DENV-3, 334 nM.
Regarding “SGSWLRDVWDWICTVLTDFKTWLQSKL [Peptide N2O]”, the IC50 with DENV-2 is 384 nM; in the series on DENV-1, 146 nM; in the series with DENV-4, 266 nM; with DENV-3, 662 nM. Moreover, the “Dependence of vesicle rupture on vesicle size (membrane-curvature sensing), single-vesicle analysis” value in series [1] is given as “ruptured vesicles independently of vesicle size”.
For “GDDWLHDIWDWVCIVLSDFKTWLSAKI [Peptide N8O]”, the IC50 in the series on DENV-2 was 257 nM; with DENV-1, 224 nM; with DENV-4, 343 nM; in the series on DENV-3, 648 nM.
For “SGSWLRDIWEWVCSILTDFKNWLSAKL [Peptide N4O]”, the IC50 was 556 nM in the series on DENV-2, 278 nM in the series on DENV-1, 333 nM with DENV-4 and 2790 nM in the series on DENV-3.
As to “DGNWLYDIWNWVCTVLADFKLWLGAKI [Peptide N9O]”, the IC50 with DENV-2 turned out to be 185 nM; in the series with DENV-1 it was 139 nM; in the series with DENV-4, 240 nM; in the series on DENV-3, 262 nM.
Taken in the same sequence, the figures for “SDDWLRIIWDWVCSVVSDFKAWLSAKI [Peptide N5O]” were 838 nM, 235 nM, 649 nM and 1590 nM.
On to `CC[C@@H](C)[C@@H](NC(=O)[C@@H](Cc1c[nH]c2ccccc12)NC(=O)[C@@H](CC(=O)O)NC(=O)[C@@H](Cc1c[nH]c2ccccc12)NC(=O)[C@H](NC(=O)[C@@H](CC(=O)O)NC(=O)[C@@H](CCCNC(=N)N)NC(=O)[C@@H](CC(C)C)NC(=O)[C@@H](Cc1c[nH]c2ccccc12)NC(=O)[C@@H](CO)NC(=O)CNC(=O)[C@H](N)CO)C(C)C)C(=O)N[C@H](CS)C(=O)N[C@@H](C(=O)N[C@@H](C(=O)N[C@H](CC(C)C)C(=O)N[C@@H](C(=O)N[C@H](CC(=O)O)C(=O)N[C@H](Cc1ccccc1)C(=O)N[C@H](CCCCN)C(=O)N[C@@H](C(=O)N[C@H](Cc1c[nH]c2ccccc12)C(=O)N[C@H](CC(C)C)C(=O)N[C@H](CCC(N)=O)C(=O)N[C@H](CO)C(=O)N[C@H](CCCCN)C(=O)N[C@H](CC(C)C)C(=O)O)[C@H](C)O)[C@H](C)O)C(C)C)[C@H](C)O` [AH-D peptide], for which the “Blood brain barrier (BBB) crossing” value in series [2] is given as “able to cross the blood brain barrier”; in series [2] (listed as D-amino acid version of peptide 2), “BBB-crossing activity to achieve therapeutic concentrations in the brain”. Also, the Bioavailability result in series [3] is reported as “high bioavailability”. In series [3] (25 mg kg−1 i.v.), the Circulation half-time result is “relatively long circulation half-time”.
